# Laboratory results taken from ChEMBL document CHEMBL4118239, “Novel leucine ureido derivatives as aminopeptidase N inhibitors using click chemistry” (Bioorg Med Chem, 2018).
# Calls of active or inactive are those of the source. The rule behind the calls is not given here.
# Key:
# Aminopeptidase N [1] = target: T1, Aminopeptidase N (Sus scrofa, UniProt P15145); assay: Inhibition of APN in porcine kidney microsomes using L-Leu-pnitroanilide as substrate pretreated for 5 mins followed by substrate addition measured after 30 mins
# T1 sequence (P15145 whole entry): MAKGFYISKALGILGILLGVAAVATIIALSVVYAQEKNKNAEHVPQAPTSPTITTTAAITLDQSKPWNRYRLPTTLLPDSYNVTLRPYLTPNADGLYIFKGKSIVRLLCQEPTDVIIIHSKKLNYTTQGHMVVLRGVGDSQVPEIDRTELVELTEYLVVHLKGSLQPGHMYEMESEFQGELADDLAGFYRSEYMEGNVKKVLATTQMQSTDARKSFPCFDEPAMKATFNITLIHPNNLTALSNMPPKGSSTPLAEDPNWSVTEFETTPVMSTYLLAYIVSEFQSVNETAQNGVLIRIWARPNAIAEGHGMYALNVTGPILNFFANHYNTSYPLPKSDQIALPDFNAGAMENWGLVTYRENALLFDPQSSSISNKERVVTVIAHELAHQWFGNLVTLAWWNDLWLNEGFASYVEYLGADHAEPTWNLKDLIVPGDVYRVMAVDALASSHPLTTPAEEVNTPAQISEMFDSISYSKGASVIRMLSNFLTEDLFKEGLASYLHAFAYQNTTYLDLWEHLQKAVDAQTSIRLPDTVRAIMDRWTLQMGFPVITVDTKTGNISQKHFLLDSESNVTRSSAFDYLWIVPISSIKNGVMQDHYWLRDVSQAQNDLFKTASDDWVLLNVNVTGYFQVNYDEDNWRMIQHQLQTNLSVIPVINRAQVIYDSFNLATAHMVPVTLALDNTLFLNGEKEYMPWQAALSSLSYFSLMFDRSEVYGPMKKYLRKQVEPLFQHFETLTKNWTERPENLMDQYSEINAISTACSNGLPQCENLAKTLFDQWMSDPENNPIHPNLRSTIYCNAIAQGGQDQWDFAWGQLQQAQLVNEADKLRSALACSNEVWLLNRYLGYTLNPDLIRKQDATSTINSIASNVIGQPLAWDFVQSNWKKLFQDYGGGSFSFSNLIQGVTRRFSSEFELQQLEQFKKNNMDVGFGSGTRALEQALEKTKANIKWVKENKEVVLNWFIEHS
# Aminopeptidase N [2] = target: T2, Aminopeptidase N (Homo sapiens, UniProt P15144); assay: Inhibition of APN in human ES2 cells using L-Leu-pnitroanilide as substrate pretreated for 5 mins followed by substrate addition measured after 1 hr; format: cell-based
# Aminopeptidase N [3] = target: T2, Aminopeptidase N; assay: Inhibition of APN in human PLC/PRF/5 cells using L-Leu-pnitroanilide as substrate pretreated for 5 mins followed by substrate addition measured after 1 hr; format: cell-based
# H22 = assay: Anti-metastatic activity against mouse H22 cells implanted in Kunming mouse assessed as reduction in number of metastatic nodes at 60 mg/kg, ip administered once daily for 12 days measured on day 13 by bouin's staining based assay relative to control; format: functional; parameters: scale not given: the % may be the effect or the level left
# Thoracic aorta [4] = assay: Antiangiogenic activity in Sprague-Dawley rat thoracic aorta ring assessed as reduction in micro-vessel growth at 100 uM supplemented with fresh medium containing compound every 3 for 9 days measured on day 9 by matrigel-based inverted microscopic analysis; format: functional, tissue-based
# HUVEC [5] = assay: Antiangiogenic activity in HUVEC assessed as inhibition of capillary-like tube formation at 100 uM after 4 hrs by matrigel-based assay; format: functional, cell-based; settings: Homo sapiens
# Mus musculus [6] = assay: Hepatotoxicity in Kunming mouse implanted with mouse H22 cells at 60 mg/kg, ip administered once daily for 12 days; format: toxicity, organism-based; settings: in vivo, 288 h
# PC-3 = assay: cells; settings: Homo sapiens, PC-3, 48 h
# Mus musculus [7] = assay: Toxicity in Kunming mouse implanted with mouse H22 cells assessed as body weight loss at 60 mg/kg, ip administered once daily for 12 days measured every 2 days during compound dosing; format: organism-based; settings: in vivo
# MDA-MB-231 = assay: Antiproliferative activity against human MDA-MB-231 cells after 48 hrs by MTT assay; settings: MDA-MB-231, 48 h
# cells = settings: Homo sapiens, ES-2, 48 h
# Description: Antiproliferative activity against human ES2 cells after 48 hrs by MTT assay
# HCT-116 = assay: cells; settings: Homo sapiens, HCT-116, 48 h
# PLC = assay: cells; settings: Homo sapiens, 48 h
# Description: Antiproliferative activity against human PLC cells after 48 hrs by MTT assay
# K562 = assay: cells; settings: Homo sapiens, K562, 48 h
# U-937 = assay: cells; settings: Homo sapiens, U-937, 48 h
# Description: Antiproliferative activity against human U937 cells after 48 hrs by MTT assay
# Thoracic aorta [8] = assay: Antiangiogenic activity in Sprague-Dawley rat thoracic aorta ring assessed as reduction in micro-vessel growth supplemented with fresh medium containing compound every 3 for 9 days measured on day 9 by matrigel-based inverted microscopic analysis; format: functional, tissue-based
# A549 = assay: cells; settings: Homo sapiens, A549, 48 h
# HUVEC [9] = assay: Antiangiogenic activity in HUVEC assessed as inhibition of capillary-like tube formation after 4 hrs by matrigel-based assay; format: functional, cell-based; settings: Homo sapiens
# Mus musculus [10] = assay: Toxicity in Kunming mouse implanted with mouse H22 cells assessed as effect on spleen at 60 mg/kg, ip administered once daily for 12 days; format: organism-based; settings: in vivo, 288 h
# T2 sequence (P15144 whole entry): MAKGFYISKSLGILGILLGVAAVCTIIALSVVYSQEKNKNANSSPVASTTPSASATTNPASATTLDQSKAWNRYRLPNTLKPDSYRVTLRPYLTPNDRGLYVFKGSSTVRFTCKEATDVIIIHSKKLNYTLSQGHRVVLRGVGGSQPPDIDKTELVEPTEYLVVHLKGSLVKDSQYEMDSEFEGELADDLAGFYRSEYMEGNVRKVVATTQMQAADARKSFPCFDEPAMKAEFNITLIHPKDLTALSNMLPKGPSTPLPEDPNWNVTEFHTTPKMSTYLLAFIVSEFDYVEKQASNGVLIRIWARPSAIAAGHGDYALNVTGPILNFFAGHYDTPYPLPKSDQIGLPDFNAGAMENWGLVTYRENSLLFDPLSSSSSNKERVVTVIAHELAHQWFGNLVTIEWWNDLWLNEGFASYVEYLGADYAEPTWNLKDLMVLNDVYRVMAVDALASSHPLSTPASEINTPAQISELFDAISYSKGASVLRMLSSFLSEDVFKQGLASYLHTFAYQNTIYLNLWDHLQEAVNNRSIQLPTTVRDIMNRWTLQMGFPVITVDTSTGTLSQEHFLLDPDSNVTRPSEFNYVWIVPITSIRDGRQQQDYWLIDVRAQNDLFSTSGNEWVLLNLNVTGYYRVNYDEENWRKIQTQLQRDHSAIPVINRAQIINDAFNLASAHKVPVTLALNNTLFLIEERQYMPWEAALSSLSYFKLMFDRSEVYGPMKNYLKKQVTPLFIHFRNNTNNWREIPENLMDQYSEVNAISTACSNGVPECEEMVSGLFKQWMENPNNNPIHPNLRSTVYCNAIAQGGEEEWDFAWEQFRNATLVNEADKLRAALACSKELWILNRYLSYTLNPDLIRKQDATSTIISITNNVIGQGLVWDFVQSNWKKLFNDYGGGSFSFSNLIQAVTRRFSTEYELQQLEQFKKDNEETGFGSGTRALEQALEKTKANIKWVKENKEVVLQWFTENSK
IC50 (Aminopeptidase N [1]) [µM],Compound,other results
2.1,CC(C)C[C@H](NC(=O)NCc1cn(Cc2ccccc2)nn1)C(=O)NO,–
0.65,COc1ccccc1Cn1cc(CNC(=O)N[C@@H](CC(C)C)C(=O)NO)nn1,IC50 (Aminopeptidase N [2]): 6.5 µM; IC50 (Aminopeptidase N [3]): 15.3 µM
0.91,COc1cccc(Cn2cc(CNC(=O)N[C@@H](CC(C)C)C(=O)NO)nn2)c1,–
0.44,CCOc1ccccc1Cn1cc(CNC(=O)N[C@@H](CC(C)C)C(=O)NO)nn1,IC50 (Aminopeptidase N [2]): 2.1 µM; IC50 (Aminopeptidase N [3]): 5 µM
2.6,COc1ccc(Cn2cc(CNC(=O)N[C@@H](CC(C)C)C(=O)NO)nn2)cc1OC,–
3.6,Cc1ccc(Cn2cc(CNC(=O)N[C@@H](CC(C)C)C(=O)NO)nn2)cc1,–
0.76,Cc1ccccc1Cn1cc(CNC(=O)N[C@@H](CC(C)C)C(=O)NO)nn1,IC50 (Aminopeptidase N [2]): 6.9 µM; IC50 (Aminopeptidase N [3]): 20.6 µM
0.55,COc1ccccc1C(C)n1cc(CNC(=O)N[C@@H](CC(C)C)C(=O)NO)nn1 (stereo partly drawn),IC50 (Aminopeptidase N [2]): 4.8 µM; IC50 (Aminopeptidase N [3]): 12.3 µM
0.68,CC(C)C[C@H](NC(=O)NCc1cn(Cc2ccccc2N)nn1)C(=O)NO,–
2.2,Cc1cccc(Cn2cc(CNC(=O)N[C@@H](CC(C)C)C(=O)NO)nn2)c1,–
1.9,COc1ccc(Cn2cc(CNC(=O)N[C@@H](CC(C)C)C(=O)NO)nn2)cc1,–
3.7,CC(C)C[C@H](NC(=O)NCc1cn(Cc2cccc(N)c2)nn1)C(=O)NO,–
1.4,CC(C)C[C@H](NC(=O)NCc1cn(Cc2cccc3ccccc23)nn1)C(=O)NO,–
3.5,CC(C)C[C@H](NC(=O)NCc1cn(Cc2cccc(Br)c2)nn1)C(=O)NO,–
0.089,CC(C)C[C@H](NC(=O)NCc1cn(Cc2ccccc2OCc2ccccc2)nn1)C(=O)NO,Activity (Mus musculus [6]): Non-Toxic; Activity (H22): 71%; IC50 (PC-3): 119 µM; Activity (Mus musculus [7]): Non-Toxic; IC50 (Aminopeptidase N [2]): 0.74 µM; IC50 (MDA-MB-231): 72.5 µM; IC50 (Aminopeptidase N [3]): 1.3 µM; IC50 (cells): 105 µM; IC50 (HCT-116): 81.2 µM; IC50 (PLC): 92.8 µM; IC50 (K562): 85 µM; IC50 (U-937): 68.4 µM; Activity (Thoracic aorta [8]): Dose-dependent effect; IC50 (A549): 90 µM; inhibition (HUVEC [9]): Dose-dependent effect; Activity (Mus musculus [10]): Non-Toxic
0.47,COc1cccc(OC)c1Cn1cc(CNC(=O)N[C@@H](CC(C)C)C(=O)NO)nn1,–
0.67,CC(C)C[C@H](NC(=O)NCc1cn(Cc2ccccc2Cl)nn1)C(=O)NO,–
3.4,CC(C)C[C@H](NC(=O)NCc1cn(Cc2ccccc2[N+](=O)[O-])nn1)C(=O)NO,–
0.88,CC(C)C[C@H](NC(=O)NCc1cn(Cc2ccccc2Br)nn1)C(=O)NO,–

# The next lines start with the molecule.
Compound,IC50 (Aminopeptidase N [1]) [µM],other results
CC(C)C[C@H](NC(=O)NCc1cn(Cc2ccc(Cl)cc2)nn1)C(=O)NO,6.9,–
CC(C)C[C@H](NC(=O)NCc1cn(C(c2ccccc2)c2ccccc2)nn1)C(=O)NO,2.3,–
COc1cc(Cn2cc(CNC(=O)N[C@@H](CC(C)C)C(=O)NO)nn2)cc(OC)c1OC,1.4,–
CC(C)C[C@H](NC(=O)NCc1cn(Cc2cccc(Cl)c2)nn1)C(=O)NO,3.1,–
CC(C)C[C@H](NC(=O)NCc1cn(Cc2cccnc2)nn1)C(=O)NO,2.2,–
CC(C)C[C@H](NC(=O)NCc1cn(C/C=C/c2ccccc2)nn1)C(=O)NO,2.2,–
CC(C)C[C@H](NC(=O)NCc1cn(Cc2c(Cl)cccc2Cl)nn1)C(=O)NO,0.58,–
O=C(NCc1cn(Cc2ccc(Cl)cc2)nn1)N[C@H](C(=O)NO)c1ccccc1,11.3,–
CCOc1ccc(Cn2cc(CNC(=O)N[C@@H](CC(C)C)C(=O)NO)nn2)cc1,1.5,–
CC(C)C[C@H](NC(=O)NCc1cn(Cc2cccc(C#N)c2)nn1)C(=O)NO,7.8,–
CC(C)C[C@H](NC(=O)[C@@H](O)[C@H](N)Cc1ccccc1)C(=O)O [UBENIMEX],–,Activity (H22): 64%; Activity (Thoracic aorta [4]): Active; inhibition (HUVEC [5]): Active
CCOc1cccc(Cn2cc(CNC(=O)N[C@@H](CC(C)C)C(=O)NO)nn2)c1,0.82,–
CC(C)C[C@H](NC(=O)NCc1cn(C(C)c2ccccc2)nn1)C(=O)NO (stereo partly drawn),1.9,–
CC(C)C[C@H](NC(=O)NCc1cn(Cc2ccc(Br)cc2)nn1)C(=O)NO,7.8,–
CC(C)C[C@H](NC(=O)NCc1cn(Cc2ccc(Cl)c(Cl)c2)nn1)C(=O)NO,5.5,–
CC(C)C[C@H](NC(=O)NCc1cn(Cc2ccc3ccccc3c2)nn1)C(=O)NO,3.9,–
Cc1cccc(C)c1Cn1cc(CNC(=O)N[C@@H](CC(C)C)C(=O)NO)nn1,0.39,–
CC(C)C[C@H](NC(=O)NCc1cn(Cc2ccc([N+](=O)[O-])cc2)nn1)C(=O)NO,1,–
CC[C@@H](C)[C@H](NC(=O)NCc1cn(Cc2ccccc2)nn1)C(=O)NO,13.6,–
CC(C)C[C@H](NC(=O)NCc1cn(CCc2ccccc2)nn1)C(=O)NO,3.6,–
CC(C)C[C@H](NC(=O)NCc1cn(Cc2cccc([N+](=O)[O-])c2)nn1)C(=O)NO,1.7,–
CC(C)C[C@H](NC(=O)NCc1cn(Cc2ccc(C#N)cc2)nn1)C(=O)NO,1.4,–
CC(C)C[C@H](NC(=O)NCc1cn(Cc2cccc(OCc3ccccc3)c2)nn1)C(=O)NO,0.24,IC50 (PC-3): 123 µM; IC50 (Aminopeptidase N [2]): 0.87 µM; IC50 (MDA-MB-231): 72.6 µM; IC50 (Aminopeptidase N [3]): 4.9 µM; IC50 (cells): 108 µM; IC50 (HCT-116): 130 µM; IC50 (PLC): 112 µM; IC50 (K562): 99.8 µM; IC50 (U-937): 70.3 µM; IC50 (A549): 128 µM
